Key:
[1] = In vitro stability in mouse serum; assay type: in vitro ADME; details: for percentage of intact probe: 37°C
A375M tumors = details: µPET
[2] = µPET ROI analysis, normal lung
B16F10 cells = test: In vitro cell uptake in B16F10 cells
[3] = test system: B16F10 melanoma lung metastases; test: µPET ROI analysis, B16F10 lung metastases model; details: lungs harboring metastasis
[4] = test system: B16F10 pulmonary metastases; test: Biodistribution in B16F10 lung metastases bearing mice; details: 2 h p.i.
B16F10 melanoma = test: Biodistribution in subcutaneous B16F10 tumor bearing mice
B16 melanoma = details: C57BL6 mice bearing B16 melanoma, 24 h; cited from earlier work
[5] = subcutaneous B16F10 tumor bearing mice, 2 h p.i.

SMILES: CCN(CC)CCNC(=O)c1ccc([18F])cc1 [^18F-FBZA, ^18F-N-[2-(diethylamino)ethyl]-4-fluoro-Benzamide]
- percentage of intact probe ([1]; 30 min incubation): 94.1%
- percentage of intact probe ([1]; 60 min incubation): 93.5%
- percentage of intact probe ([1]; 120 min incubation): 87.8%
- percentage of intact probe ([1]; 150 min incubation): 85.1%
- Defluorination ([1]; up to 150 min): not observed
- tumor uptake, PET ROI analysis (A375M tumors): 0.86 ± 0.03 %ID/g
- lung uptake, µPET ROI analysis [2]: 1.2 ± 0.2 %ID/g
- cellular accumulation (B16F10 cells; B16F10 cells pretreated with L-tyrosine (2.0 mM) 24 h, 4°C, 30 minutes): 4.5 ± 0.5%
- cell uptake (B16F10 cells; B16F10 cells pretreated with L-tyrosine (2.0 mM) 24 h, 37°C, 30 minutes): 10.7 ± 0.8%
- cellular accumulation (B16F10 cells; non-treated B16F10 cells, 2-hour incubation, 4 °C): 0.49 ± 0.03%
- cellular accumulation (B16F10 cells; non-treated B16F10 cells, 2-hour incubation, 37 °C): 0.52 ± 0.1%
- uptake at 4°C less than cellular uptake at 37°C (B16F10 cells; tyrosine stimulated B16F10 cells, 30 minutes): 58%
- fold increase of uptake compared to non-treated B16F10 cells (B16F10 cells; tyrosine stimulated cells, 37°C): 18–25 fold
- lung uptake, µPET ROI analysis ([3]; tumor dose 0.4 × 10^6 B16F10 cells): 9.0 ± 0.4 %ID/g
- lung uptake, µPET ROI analysis ([3]; tumor dose 0.8 × 10^6 B16F10 cells): 15.3 ± 1.1 %ID/g
- Uptake Ratio Lung / Blood ([4]; lung metastases from 0.2 × 10^6 B16F10 cells): 24.7 ± 13.5
- Uptake Ratio Lung / Blood ([4]; lung metastases from 0.4 × 10^6 B16F10 cells): 38.9 ± 10.3
- tumor to brain ratio (B16F10 melanoma; B16F10 model, 1 h): 5.14 ± 1.10
- lung-to-blood ratio (B16F10 melanoma; B16F10 subcutaneous tumor bearing mice, 2 h): 4.72 ± 0.46
- Uptake Ratio Tumor / Blood (B16F10 melanoma; [5]): 34.0 ± 13.2
- Uptake Ratio Tumor / Muscle (B16F10 melanoma; [5]): 23.3 ± 10.1

SMILES: CCN(CC)CCNC(=O)c1ccc([125I])cc1 [^125I-BZA, N-(2-diethylaminoethy1)-4-^125I-iodo-benzamide]
- tumor-to-blood ratio (B16 melanoma): 37.3 ± 6.9

Reference: paper PMC4215196 (Journal of nuclear medicine : official publication, Society …, 2009)
